# Columns and labels:
# ALYREF [1] = target: T1, ALYREF (Mus musculus, UniProt O08583, DEL113-113); assay: cellular thermal shift assay (also DARTS in lysate); type: cell-based; conditions: Flag-tagged mutant transfected into mouse cardiomyocytes
# T1 construct: full length; endogenous in neonatal mouse cardiomyocytes (wild type); Flag-tagged plasmids transfected into the cardiomyocytes for the deletion mutants
# ALYREF [2] = target: T2, ALYREF (Mus musculus, UniProt O08583); assay: as above; type: cell-based; conditions: mouse cardiomyocytes; 40 to 67 °C, 3 min; vs DMSO
# T2 construct: full length; endogenous in neonatal mouse cardiomyocytes (wild type); Flag-tagged plasmids transfected into the cardiomyocytes for the deletion mutants
# ALYREF [3] = target: T3, ALYREF (Mus musculus, UniProt O08583, DEL171-171); assay: as above; type: cell-based; conditions: Flag-tagged mutant transfected into mouse cardiomyocytes
# T3 construct: full length; endogenous in neonatal mouse cardiomyocytes (wild type); Flag-tagged plasmids transfected into the cardiomyocytes for the deletion mutants
# [4] = target: ALYREF (purified recombinant, pSMARt‐I‐ALYREF) (Mus musculus, UniProt O08583); assay: in vitro droplet (phase separation) assay, microscopy; type: biochemical; conditions: 250 mmol/L Tris pH 8.0, 10% PEG-8000, room temperature
structure (smiles),measurement,setting,value
COc1cccc2c1C(=O)c1c(O)c3c(c(O)c1C2=O)C[C@@](O)(C(=O)CO)C[C@@H]3O[C@H]1C[C@H](N)[C@H](O)[C@H](C)O1 [doxorubicin],"binding retained (DARTS, CESTA)",ALYREF [1],DOX remained capable of binding to the ΔD113 mutant
same,thermal stability (CESTA),ALYREF [2],DOX treatment significantly increased the thermal stability of ALYREF compared with the DMSO control
same,"binding abolished (DARTS, CESTA)",ALYREF [3],Deletion of D171 abolished the interaction between ALYREF and DOX
same,droplet disruption,[4],"also disrupted by DOX, which caused droplet disintegration and structural irregularity"

# Reference: publication PMC12631900, “Preservation of ALYREF Phase Separation Mitigates Doxorubicin‐Induced Cardiomyocyte DNA Damage and Cardiotoxicity” (Advanced Science, 2025)
